From patent publication US11034725B2, “Compositions and methods for treating cardiovascular disease” (Genentech, Inc., priority 2016, dated 2021) come the findings set out here.

Structures are written as SMILES. Square brackets hold non-standard residues; d marks the D form. Peptide text beside a SMILES is read from it. * marks the point of attachment. Propanoyl(3-indol-3-yl) = O=C(CCc1c[nH]c2ccccc12)*; Butyryl(4-indol-3-yl) = O=C(CCCc1c[nH]c2ccccc12)*; Propanoyl(3-(4-Cl-Ph)) = O=C(CCc1ccc(Cl)cc1)*; X1 = O=C([C@H]1CC[C@@H](c2ccccc2)CC1)*; Desaminotyrosyl = O=C(CCc1ccc(O)cc1)*; Butanoyl(4-OPh) = O=C(CCCOc1ccccc1)*; Butanoyl(4-Ph) = O=C(CCCc1ccccc1)*; hArg = N=C(N)NCCCC[C@H](N)C(=O)O; X36 = CC(=O)c1ccc(OCCC(=O)*)cc1; X28 = COc1cc(OCCCC(=O)*)ccc1CO; X11 = O=C(CCCOc1ccc(Br)cc1)*; X18 = COc1ccc(OCCC(=O)*)cc1; X25 = COc1cc(CCC(=O)*)ccc1O; X31 = Cc1ccc(OCCCC(=O)*)cc1; X7 = CCc1ccc(OCCCC(=O)*)cc1; X15 = COc1cccc(CCC(=O)*)c1; X10 = Nc1cccc(CCC(=O)*)c1; X29 = Nc1ccc(CCC(=O)*)cc1; X30 = O=C(CCc1cccc(O)c1)*; X35 = Nc1ccc(CCC(=O)*)cn1; X4 = Cc1ccc(OCCC(=O)*)cc1

One experiment concerns the target PCSK9 (Homo sapiens, UniProt Q8NBP7). Description: PCSK9/EGF(A) TR-FRET binding assay. The conditions noted are these: TR-FRET; Table 8E, additional compounds; read-out: PCSK9/EGF(A) IC50. (In general: TR-FRET usually uses a lanthanide donor and a delayed reading to cut background.)
For the next experiment, the target named is T1, PCSK9Δhelix (Homo sapiens, UniProt Q8NBP7).
T1 construct: Human PCSK9 construct M1-Q692 with an engineered TEV site (residue deletion Y166, R167); made in house; host or cells: CHO
T1 sequence (Q8NBP7 with tags, fused parts or gaps limits assumed): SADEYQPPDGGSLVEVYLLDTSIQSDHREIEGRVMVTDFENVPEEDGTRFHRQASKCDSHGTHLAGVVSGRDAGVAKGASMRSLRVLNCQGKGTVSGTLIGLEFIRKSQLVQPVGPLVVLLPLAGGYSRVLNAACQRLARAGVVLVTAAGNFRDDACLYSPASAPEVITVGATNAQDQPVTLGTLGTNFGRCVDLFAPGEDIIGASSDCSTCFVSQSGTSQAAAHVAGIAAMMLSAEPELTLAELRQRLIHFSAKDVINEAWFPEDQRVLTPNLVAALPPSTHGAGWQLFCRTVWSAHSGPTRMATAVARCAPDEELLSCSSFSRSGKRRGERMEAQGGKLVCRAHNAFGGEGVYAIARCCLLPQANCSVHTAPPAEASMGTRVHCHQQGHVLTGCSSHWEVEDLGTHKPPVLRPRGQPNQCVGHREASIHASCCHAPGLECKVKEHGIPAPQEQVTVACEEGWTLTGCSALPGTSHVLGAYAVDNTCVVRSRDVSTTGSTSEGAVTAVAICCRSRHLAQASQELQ
T1 sequence (Q8NBP7 31-152 partner limits assumed): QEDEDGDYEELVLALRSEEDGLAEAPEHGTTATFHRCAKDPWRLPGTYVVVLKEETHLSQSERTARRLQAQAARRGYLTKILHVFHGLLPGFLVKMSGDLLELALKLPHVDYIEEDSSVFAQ
Briefly: PCSK9Δhelix/Ab20 TR-FRET binding assay. The conditions noted are these: TR-FRET; Table 8E, additional compounds; read-out: PCSK9Δhelix/Ab20 IC50.

PCSK9, sequence (Q8NBP7 153-692): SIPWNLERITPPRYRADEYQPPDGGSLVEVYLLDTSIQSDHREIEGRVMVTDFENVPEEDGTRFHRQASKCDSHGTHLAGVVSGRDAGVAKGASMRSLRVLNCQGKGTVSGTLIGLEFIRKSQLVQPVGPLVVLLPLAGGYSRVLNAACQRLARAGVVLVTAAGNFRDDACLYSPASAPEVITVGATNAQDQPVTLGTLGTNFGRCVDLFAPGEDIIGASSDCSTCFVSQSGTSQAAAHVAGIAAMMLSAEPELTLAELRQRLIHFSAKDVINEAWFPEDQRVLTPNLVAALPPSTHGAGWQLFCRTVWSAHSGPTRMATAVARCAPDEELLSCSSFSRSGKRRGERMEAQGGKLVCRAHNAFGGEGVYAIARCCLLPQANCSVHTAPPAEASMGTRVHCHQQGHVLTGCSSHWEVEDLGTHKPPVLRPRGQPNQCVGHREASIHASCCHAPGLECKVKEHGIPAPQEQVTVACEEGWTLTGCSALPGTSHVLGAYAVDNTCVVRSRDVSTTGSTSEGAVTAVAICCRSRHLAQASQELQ
PCSK9, sequence (Q8NBP7 31-152 partner limits assumed): as the sequence (Q8NBP7 31-152 partner limits assumed) above
Method for PCSK9Δhelix: The former was based on a TF-FRET assay to measure the association of the EGF(A) domain of the LDLR to PCSK9 (“PCSK9/EGF(A) binding assay”) whilst the latter was based on a TR-FRET assay to measure binding of Ab20 to PCSK9Δhelix (“PCSK9Δhelix/Ab20 binding assay”).
The ability of compounds to inhibit binding to PCSK9 was evaluated with a panel of time-resolved fluorescence resonance energy transfer (TR-FRET) binding assays. […] The PCSK9Δhelix/Ab20 binding assay evaluated the ability of compounds to compete with Ab20 for binding to the N-terminal groove region in a His-tagged, PCSK9Δhelix construct. […] Signal generation in the PCSK9 binding assays was dependent upon the binding interaction to bring into close proximity the His-tag on the PCSK9 and the Fc-tag on the ligand. Anti-His-APC was bound to the His-tag, and anti-Fc-europium was bound to the Fc-tag. When these two antibodies were in close proximity and were irradiated with light at 340 nm, the europium was excited and emitted energy at 615 nm. This energy was taken up by the APC and was emitted as light at 665 nm. Compounds that competed with the ligand reduced the energy transfer and thus the emission at 665 nm. In the His-EGFA-Fc molecule in the counterscreen, the two tags were always in close proximity, thus any reduction in emission at 665 nm was due to interference with the detection system.
Compounds were solubilized and dilutions were prepared in DMSO. […] The plate was centrifuged to mix the well contents and allowed to incubate for 30 min. […] The TR-FRET signal was read on a ViewLux reader (PerkinElmer) with excitation at 340 nm and emission at 615 and 665 nm with a 50-μs time delay between excitation and measurement of emission. The TR-FRET ratio was calculated as the fluorescence emission at 665 nm divided by the fluorescence emission at 615 nm. The normalized TR-FRET ratios were plotted as a function of the compound concentrations, and the IC50 values were determined using a 4-parameter logistic regression.
In black 1536-well assay plates (MaKO, Aurora® Microplates, Whitefish, Mont.), 40 nL of peptide in DMSO were preincubated with 2 μL His-tagged PCSK9 plus anti-His-allophycocyanin in assay buffer (50 mM Tris-HCl, pH 7.5, 150 mM NaCl, 2 mM CaCl2, 0.01% Tween®-20, 0.1% bovine gamma globulins, and protease inhibitor cocktail) for 30 min. Then 2 μL of Fc-tagged ligand and anti-Fc-europium in assay buffer were added and allowed to incubate for 2 h.

As to `CC[C@H](C)[C@H](NC(=O)[C@H](CCCCNC(=N)N)NC(=O)[C@@H](NC(=O)[C@H](CC(C)C)NC(=O)[C@H](CC(N)=O)NC(=O)[C@H](Cc1c[nH]c2ccccc12)NC(=O)CCc1ccc(Cl)cc1)C(C)C)C(=O)NCC(=O)N[C@@H](CC(C)C)C(=O)N[C@@H](CC(C)C)C(=O)N[C@@H](CCCNC(=N)N)C(N)=O` [Compound 199] ({Propanoyl(3-(4-Cl-Ph))}-WNLV[hArg]IGLLR-NH2), the IC50 at PCSK9 amounted to 980 nM; on PCSK9Δhelix, 200 nM.

As to `CC[C@H](C)[C@H](NC(=O)[C@H](CCCCNC(=N)N)NC(=O)[C@@H](NC(=O)[C@H](CC(C)C)NC(=O)[C@H](CC(N)=O)NC(=O)[C@H](Cc1c[nH]c2ccccc12)NC(=O)CCCc1c[nH]c2ccccc12)C(C)C)C(=O)NCC(=O)N[C@@H](CC(C)C)C(=O)N[C@@H](CC(C)C)C(=O)N[C@@H](CCCNC(=N)N)C(N)=O` [Compound 200] ({Butyryl(4-indol-3-yl)}-WNLV[hArg]IGLLR-NH2), the IC50 came to 3200 nM at PCSK9 and 670 nM at PCSK9Δhelix.

Consider `CC[C@H](C)[C@H](NC(=O)[C@H](CCCCNC(=N)N)NC(=O)[C@@H](NC(=O)[C@H](CC(C)C)NC(=O)[C@H](CC(N)=O)NC(=O)[C@H](Cc1c[nH]c2ccccc12)NC(=O)CCc1c[nH]c2ccccc12)C(C)C)C(=O)NCC(=O)N[C@@H](CC(C)C)C(=O)N[C@@H](CC(C)C)C(=O)N[C@@H](CCCNC(=N)N)C(N)=O` [Compound 201] ({Propanoyl(3-indol-3-yl)}-WNLV[hArg]IGLLR-NH2), for which the IC50 came to 3900 nM on PCSK9 and 1000 nM on PCSK9Δhelix.

`CC[C@H](C)[C@H](NC(=O)[C@H](CCCCNC(=N)N)NC(=O)[C@@H](NC(=O)[C@H](CC(C)C)NC(=O)[C@H](CC(N)=O)NC(=O)[C@H](Cc1c[nH]c2ccccc12)NC(=O)CCc1cccc(OC)c1)C(C)C)C(=O)NCC(=O)N[C@@H](CC(C)C)C(=O)N[C@@H](CC(C)C)C(=O)N[C@@H](CCCNC(=N)N)C(N)=O` [Compound 202] (X15-WNLV[hArg]IGLLR-NH2): the IC50 was determined as 2600 nM on PCSK9 and 340 nM on PCSK9Δhelix.

For the compound `CC[C@H](C)[C@H](NC(=O)[C@H](CCCCNC(=N)N)NC(=O)[C@@H](NC(=O)[C@H](CC(C)C)NC(=O)[C@H](CC(N)=O)NC(=O)[C@H](Cc1c[nH]c2ccccc12)NC(=O)CCOc1ccc(OC)cc1)C(C)C)C(=O)NCC(=O)N[C@@H](CC(C)C)C(=O)N[C@@H](CC(C)C)C(=O)N[C@@H](CCCNC(=N)N)C(N)=O` [Compound 203] (X18-WNLV[hArg]IGLLR-NH2), the results for the IC50 at PCSK9 and at PCSK9Δhelix were 21000 nM and 1600 nM, respectively.

Turning to `CC[C@H](C)[C@H](NC(=O)[C@H](CCCCNC(=N)N)NC(=O)[C@@H](NC(=O)[C@H](CC(C)C)NC(=O)[C@H](CC(N)=O)NC(=O)[C@H](Cc1c[nH]c2ccccc12)NC(=O)CCCOc1ccc(CO)c(OC)c1)C(C)C)C(=O)NCC(=O)N[C@@H](CC(C)C)C(=O)N[C@@H](CC(C)C)C(=O)N[C@@H](CCCNC(=N)N)C(N)=O` [Compound 204] (X28-WNLV[hArg]IGLLR-NH2), the IC50 on PCSK9 was 3600 nM; on PCSK9Δhelix, 870 nM.

Take `CC[C@H](C)[C@H](NC(=O)[C@H](CCCCNC(=N)N)NC(=O)[C@@H](NC(=O)[C@H](CC(C)C)NC(=O)[C@H](CC(N)=O)NC(=O)[C@H](Cc1c[nH]c2ccccc12)NC(=O)CCOc1ccc(C(C)=O)cc1)C(C)C)C(=O)NCC(=O)N[C@@H](CC(C)C)C(=O)N[C@@H](CC(C)C)C(=O)N[C@@H](CCCNC(=N)N)C(N)=O` [Compound 205] (X36-WNLV[hArg]IGLLR-NH2): the IC50 at PCSK9 worked out at 2800 nM; on PCSK9Δhelix, 640 nM.

In the case of `CC[C@H](C)[C@H](NC(=O)[C@H](CCCCNC(=N)N)NC(=O)[C@@H](NC(=O)[C@H](CC(C)C)NC(=O)[C@H](CC(N)=O)NC(=O)[C@H](Cc1c[nH]c2ccccc12)NC(=O)CCCOc1ccc(Br)cc1)C(C)C)C(=O)NCC(=O)N[C@@H](CC(C)C)C(=O)N[C@@H](CC(C)C)C(=O)N[C@@H](CCCNC(=N)N)C(N)=O` [Compound 206] (X11-WNLV[hArg]IGLLR-NH2), the IC50 on PCSK9 amounted to 1800 nM; on PCSK9Δhelix, 870 nM.

As to `CC[C@H](C)[C@H](NC(=O)[C@H](CCCCNC(=N)N)NC(=O)[C@@H](NC(=O)[C@H](CC(C)C)NC(=O)[C@H](CC(N)=O)NC(=O)[C@H](Cc1c[nH]c2ccccc12)NC(=O)CCCOc1ccc(C)cc1)C(C)C)C(=O)NCC(=O)N[C@@H](CC(C)C)C(=O)N[C@@H](CC(C)C)C(=O)N[C@@H](CCCNC(=N)N)C(N)=O` [Compound 207] (X31-WNLV[hArg]IGLLR-NH2), the IC50 turned out to be 1300 nM at PCSK9 and 320 nM at PCSK9Δhelix.

In the case of `CC[C@H](C)[C@H](NC(=O)[C@H](CCCCNC(=N)N)NC(=O)[C@@H](NC(=O)[C@H](CC(C)C)NC(=O)[C@H](CC(N)=O)NC(=O)[C@H](Cc1c[nH]c2ccccc12)NC(=O)[C@H]1CC[C@@H](c2ccccc2)CC1)C(C)C)C(=O)NCC(=O)N[C@@H](CC(C)C)C(=O)N[C@@H](CC(C)C)C(=O)N[C@@H](CCCNC(=N)N)C(N)=O` [Compound 208] (X1-WNLV[hArg]IGLLR-NH2), the IC50 stood at 450 nM at PCSK9 and 100 nM on PCSK9Δhelix.

As to `CC[C@H](C)[C@H](NC(=O)[C@H](CCCCNC(=N)N)NC(=O)[C@@H](NC(=O)[C@H](CC(C)C)NC(=O)[C@H](CC(N)=O)NC(=O)[C@H](Cc1c[nH]c2ccccc12)NC(=O)CCCOc1ccccc1)C(C)C)C(=O)NCC(=O)N[C@@H](CC(C)C)C(=O)N[C@@H](CC(C)C)C(=O)N[C@@H](CCCNC(=N)N)C(N)=O` [Compound 209] ({Butanoyl(4-OPh)}-WNLV[hArg]IGLLR-NH2), the values for the IC50 on PCSK9 and on PCSK9Δhelix were 2900 nM and 450 nM, respectively.

As for `CCc1ccc(OCCCC(=O)N[C@@H](Cc2c[nH]c3ccccc23)C(=O)N[C@@H](CC(N)=O)C(=O)N[C@@H](CC(C)C)C(=O)N[C@H](C(=O)N[C@@H](CCCCNC(=N)N)C(=O)N[C@H](C(=O)NCC(=O)N[C@@H](CC(C)C)C(=O)N[C@@H](CC(C)C)C(=O)N[C@@H](CCCNC(=N)N)C(N)=O)[C@@H](C)CC)C(C)C)cc1` [Compound 210] (X7-WNLV[hArg]IGLLR-NH2), the figures for the IC50 on PCSK9 and on PCSK9Δhelix were 3000 nM and 840 nM, respectively.

Consider `CC[C@H](C)[C@H](NC(=O)[C@H](CCCCNC(=N)N)NC(=O)[C@@H](NC(=O)[C@H](CC(C)C)NC(=O)[C@H](CC(N)=O)NC(=O)[C@H](Cc1c[nH]c2ccccc12)NC(=O)CCOc1ccc(C)cc1)C(C)C)C(=O)NCC(=O)N[C@@H](CC(C)C)C(=O)N[C@@H](CC(C)C)C(=O)N[C@@H](CCCNC(=N)N)C(N)=O` [Compound 211] (X4-WNLV[hArg]IGLLR-NH2), for which the IC50 was 14000 nM on PCSK9 and 3800 nM on PCSK9Δhelix.

`CC[C@H](C)[C@H](NC(=O)[C@H](CCCCNC(=N)N)NC(=O)[C@@H](NC(=O)[C@H](CC(C)C)NC(=O)[C@H](CC(N)=O)NC(=O)[C@H](Cc1c[nH]c2ccccc12)NC(=O)CCCc1ccccc1)C(C)C)C(=O)NCC(=O)N[C@@H](CC(C)C)C(=O)N[C@@H](CC(C)C)C(=O)N[C@@H](CCCNC(=N)N)C(N)=O` [Compound 212] ({Butanoyl(4-Ph)}-WNLV[hArg]IGLLR-NH2): the IC50 at PCSK9 worked out at 15000 nM; on PCSK9Δhelix it was 1600 nM.

`CC[C@H](C)[C@H](NC(=O)[C@H](CCCCNC(=N)N)NC(=O)[C@@H](NC(=O)[C@H](CC(C)C)NC(=O)[C@H](CC(N)=O)NC(=O)[C@H](Cc1c[nH]c2ccccc12)NC(=O)CCc1ccc(O)c(OC)c1)C(C)C)C(=O)NCC(=O)N[C@@H](CC(C)C)C(=O)N[C@@H](CC(C)C)C(=O)N[C@@H](CCCNC(=N)N)C(N)=O` [Compound 213] (X25-WNLV[hArg]IGLLR-NH2): the IC50 on PCSK9 came out at 3800 nM; on PCSK9Δhelix, 200 nM.

For the compound `CC[C@H](C)[C@H](NC(=O)[C@H](CCCCNC(=N)N)NC(=O)[C@@H](NC(=O)[C@H](CC(C)C)NC(=O)[C@H](CC(N)=O)NC(=O)[C@H](Cc1c[nH]c2ccccc12)NC(=O)CCc1ccc(O)cc1)C(C)C)C(=O)NCC(=O)N[C@@H](CC(C)C)C(=O)N[C@@H](CC(C)C)C(=O)N[C@@H](CCCNC(=N)N)C(N)=O` [Compound 214] (Desaminotyrosyl-WNLV[hArg]IGLLR-NH2), the IC50 at PCSK9 stood at 3000 nM; on PCSK9Δhelix, 210 nM.

In the case of `CC[C@H](C)[C@H](NC(=O)[C@H](CCCCNC(=N)N)NC(=O)[C@@H](NC(=O)[C@H](CC(C)C)NC(=O)[C@H](CC(N)=O)NC(=O)[C@H](Cc1c[nH]c2ccccc12)NC(=O)CCc1cccc(N)c1)C(C)C)C(=O)NCC(=O)N[C@@H](CC(C)C)C(=O)N[C@@H](CC(C)C)C(=O)N[C@@H](CCCNC(=N)N)C(N)=O` [Compound 215] (X10-WNLV[hArg]IGLLR-NH2), the results for the IC50 on PCSK9 and at PCSK9Δhelix were 7000 nM and 480 nM, respectively.

As to `CC[C@H](C)[C@H](NC(=O)[C@H](CCCCNC(=N)N)NC(=O)[C@@H](NC(=O)[C@H](CC(C)C)NC(=O)[C@H](CC(N)=O)NC(=O)[C@H](Cc1c[nH]c2ccccc12)NC(=O)CCc1ccc(N)nc1)C(C)C)C(=O)NCC(=O)N[C@@H](CC(C)C)C(=O)N[C@@H](CC(C)C)C(=O)N[C@@H](CCCNC(=N)N)C(N)=O` [Compound 216] (X35-WNLV[hArg]IGLLR-NH2), the figures for the IC50 on PCSK9 and at PCSK9Δhelix were 6000 nM and 300 nM, respectively.

As for `CC[C@H](C)[C@H](NC(=O)[C@H](CCCCNC(=N)N)NC(=O)[C@@H](NC(=O)[C@H](CC(C)C)NC(=O)[C@H](CC(N)=O)NC(=O)[C@H](Cc1c[nH]c2ccccc12)NC(=O)CCc1cccc(O)c1)C(C)C)C(=O)NCC(=O)N[C@@H](CC(C)C)C(=O)N[C@@H](CC(C)C)C(=O)N[C@@H](CCCNC(=N)N)C(N)=O` [Compound 217] (X30-WNLV[hArg]IGLLR-NH2), the IC50 on PCSK9 turned out to be 4100 nM; at PCSK9Δhelix it was 390 nM.

For `CC[C@H](C)[C@H](NC(=O)[C@H](CCCCNC(=N)N)NC(=O)[C@@H](NC(=O)[C@H](CC(C)C)NC(=O)[C@H](CC(N)=O)NC(=O)[C@H](Cc1c[nH]c2ccccc12)NC(=O)CCc1ccc(N)cc1)C(C)C)C(=O)NCC(=O)N[C@@H](CC(C)C)C(=O)N[C@@H](CC(C)C)C(=O)N[C@@H](CCCNC(=N)N)C(N)=O` [Compound 218] (X29-WNLV[hArg]IGLLR-NH2), the IC50 came out at 5000 nM on PCSK9 and 260 nM on PCSK9Δhelix.
